Data: ChEMBL document CHEMBL1212824, “A type-II kinase inhibitor capable of inhibiting the T315I "gatekeeper" mutant of Bcr-Abl” (J Med Chem, 2010)

Legend:
[1] = cells; conditions: Mus musculus, BaF3
[2] = cells; conditions: Mus musculus, BaF3; remark: listed apart in the source
[3] = cells; conditions: Mus musculus, BaF3; remark: listed apart in the source
[4] = cells; conditions: Mus musculus, BaF3; remark: listed apart in the source
[5] = cells; conditions: Mus musculus, BaF3; remark: listed apart in the source
[6] = cells; conditions: Mus musculus, BaF3; remark: listed apart in the source
[7] = cells; conditions: Mus musculus, BaF3; remark: listed apart in the source
[8] = target: Mitogen-activated protein kinase 14 (Homo sapiens) (UniProt Q16539); experiment: Inhibition of human SAPK2a at 10 uM
[9] = target: Glycogen synthase kinase-3 (Homo sapiens) (UniProt P49840+P49841); experiment: Inhibition of human GSK3ss at 10 uM; assay type: protein assay
[10] = target: BDNF/NT-3 growth factors receptor (Homo sapiens) (UniProt Q16620); experiment: Inhibition of human TrkB at 10 uM
[11] = target: Mitogen-activated protein kinase 1 (Homo sapiens) (UniProt P28482); experiment: Inhibition of human MAPK1 at 10 uM
[12] = target: Dual specificity mitogen-activated protein kinase kinase 1 (Homo sapiens) (UniProt Q02750); experiment: Inhibition of human MEK1 at 10 uM
[13] = cells; conditions: Homo sapiens, U-87 MG
[14] = target: Aurora kinase A (Homo sapiens) (UniProt O14965); experiment: Inhibition of human Aurora A at 10 uM
[15] = target: Protein kinase C theta type (Homo sapiens) (UniProt Q04759); experiment: Inhibition of human PKCtheta at 10 uM
[16] = system: COLO 205; experiment: cells; conditions: Homo sapiens
[17] = target: Tyrosine-protein kinase Lck (Homo sapiens) (UniProt P06239); experiment: Inhibition of human Lck at 10 uM
[18] = system: Mus musculus; experiment: Tlast in BALB/c mouse at 20 mg/kg, po; assay type: ADME, organism-based; set-up: dose 20 mg/kg, route oral; conditions: in vivo
[19] = target: 3-phosphoinositide-dependent protein kinase 1 (Homo sapiens) (UniProt O15530); experiment: Inhibition of human PDK1 at 10 uM
[20] = target: Dual specificity mitogen-activated protein kinase kinase 6 (Homo sapiens) (UniProt P52564); experiment: Inhibition of human MKK6 at 10 uM
[21] = cells; conditions: Homo sapiens, HEK-293T
[22] = target: Casein kinase II (Homo sapiens) (UniProt P67870+P68400+P19784); experiment: Inhibition of human CK2 at 10 uM; assay type: protein-complex assay
[23] = target: RAC-alpha serine/threonine-protein kinase (Homo sapiens) (UniProt P31749); experiment: Inhibition of human PKBalpha at 10 uM
[24] = target: Serine/threonine-protein kinase D2 (Homo sapiens) (UniProt Q9BZL6); experiment: Inhibition of human PKD2 at 10 uM
[25] = species on record: Mus musculus; conditions: in vivo, po, 20 mg/kg
[26] = species on record: Mus musculus; conditions: 10 uM
[27] = target: Mitogen-activated protein kinase 9 (Homo sapiens) (UniProt P45984); experiment: Inhibition of human JNK2alpha2 at 10 uM
[28] = target: Inhibitor of nuclear factor kappa-B kinase subunit alpha (Homo sapiens) (UniProt O15111); experiment: Inhibition of human IKKalpha at 10 uM
[29] = target: Insulin receptor (Homo sapiens) (UniProt P06213); experiment: Inhibition of human IR at 10 uM
[30] = target: Cyclin-dependent kinase 1/cyclin B1 (Homo sapiens) (UniProt P06493+P14635); experiment: Inhibition of human CDK1/cyclinB at 10 uM; assay type: protein-complex assay
[31] = target: Receptor-type tyrosine-protein kinase FLT3 (Homo sapiens) (UniProt P36888); experiment: Inhibition of human Flt3 at 10 uM
[32] = target: Tyrosine-protein kinase SYK (Homo sapiens) (UniProt P43405); experiment: Inhibition of human Syk at 10 uM
[33] = target: Mitogen-activated protein kinase 12 (Homo sapiens) (UniProt P53778); experiment: Inhibition of human SAPK3 at 10 uM
[34] = target: Cytoplasmic tyrosine-protein kinase BMX (Homo sapiens) (UniProt P51813); experiment: Inhibition of human Bmx at 10 uM
[35] = in vivo; conditions: BALB/c, mouse, iv, 5 mg/kg
[36] = system: Mus musculus; experiment: Tlast in BALB/c mouse at 5 mg/kg, iv; assay type: ADME, organism-based; set-up: dose 5 mg/kg, route intravenous; conditions: in vivo
[37] = in vivo; conditions: BALB/c, mouse, iv, 5 mg/kg; remark: listed apart in the source
[38] = target: Tyrosine-protein kinase CSK (Homo sapiens) (UniProt P41240); experiment: Inhibition of human CSK at 10 uM
[39] = target: MAP kinase-activated protein kinase 2 (Homo sapiens) (UniProt P49137); experiment: Inhibition of human MAPKAP-K2 at 10 uM
[40] = target: Tyrosine-protein kinase ZAP-70 (Homo sapiens) (UniProt P43403); experiment: Inhibition of human ZAP-70 at 10 uM
[41] = target: Fibroblast growth factor receptor 3 (Homo sapiens) (UniProt P22607); experiment: Inhibition of human FGFR3 at 10 uM
[42] = target: Calcium/calmodulin-dependent protein kinase type IV (Homo sapiens) (UniProt Q16566); experiment: Inhibition of human CaMK4 at 10 uM
[43] = target: Mitogen-activated protein kinase 11 (Homo sapiens) (UniProt Q15759); experiment: Inhibition of human SAPK2b at 10 uM
[44] = target: Ribosomal protein S6 kinase beta-1 (Homo sapiens) (UniProt P23443); experiment: Inhibition of human p70S6K at 10 uM
[45] = target: Serine/threonine-protein kinase Chk2 (Homo sapiens) (UniProt O96017); experiment: Inhibition of human CHK2 at 10 uM
[46] = target: Mitogen-activated protein kinase 8 (Homo sapiens) (UniProt P45983); experiment: Inhibition of human JNK1alpha1 at 10 uM
[47] = target: Serine/threonine-protein kinase PAK 2 (Homo sapiens) (UniProt Q13177); experiment: Inhibition of human PAK2 at 10 uM
[48] = target: Rho-associated protein kinase 2 (Homo sapiens) (UniProt O75116); experiment: Inhibition of human ROCK-2 at 10 uM
[49] = target: Ribosomal protein S6 kinase alpha-1 (Homo sapiens) (UniProt Q15418); experiment: Inhibition of human Rsk1 at 10 uM
[50] = target: RAF proto-oncogene serine/threonine-protein kinase (Homo sapiens) (UniProt P04049); experiment: Inhibition of human c-RAF at 10 uM
[51] = target: Platelet-derived growth factor receptor alpha (Homo sapiens) (UniProt P16234); experiment: Inhibition of human PDGFRalpha at 10 uM
[52] = target: Serine/threonine-protein kinase Sgk1 (Homo sapiens) (UniProt O00141); experiment: Inhibition of human SGK at 10 uM
[53] = target: Protein kinase C alpha type (Homo sapiens) (UniProt P17252); experiment: Inhibition of human PKCalpha at 10 uM
[54] = target: Tyrosine-protein kinase receptor UFO (Homo sapiens) (UniProt P30530); experiment: Inhibition of human Axl at 10 uM
[55] = system: SW-620; experiment: cells; conditions: Homo sapiens
[56] = Tmax in BALB/c mouse at 5 mg/kg, iv; assay type: ADME, organism-based; set-up: dose 5 mg/kg, route intravenous; conditions: in vivo
[57] = target: Tyrosine-protein kinase Fes/Fps (Homo sapiens) (UniProt P07332); experiment: Inhibition of human Fes at 10 uM
[58] = species on record: Homo sapiens; conditions: 10 uM
[59] = in vivo; conditions: BALB/c, mouse, iv, 5 mg/kg; remark: listed apart in the source
[60] = cells; conditions: Mus musculus, BaF3; remark: listed apart in the source

Chain of Mitogen-activated protein kinase 1 (Homo sapiens) (P28482 whole entry): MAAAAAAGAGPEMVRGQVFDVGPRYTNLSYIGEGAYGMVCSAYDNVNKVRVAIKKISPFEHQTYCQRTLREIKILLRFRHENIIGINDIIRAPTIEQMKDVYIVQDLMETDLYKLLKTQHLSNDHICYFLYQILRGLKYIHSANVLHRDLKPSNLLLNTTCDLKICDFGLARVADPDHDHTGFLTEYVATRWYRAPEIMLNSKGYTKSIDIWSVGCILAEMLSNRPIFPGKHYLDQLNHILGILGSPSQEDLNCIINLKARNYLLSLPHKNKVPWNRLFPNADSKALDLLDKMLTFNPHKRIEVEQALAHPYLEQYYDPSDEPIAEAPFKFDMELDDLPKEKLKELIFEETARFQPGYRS
Chain of Tyrosine-protein kinase Lck (Homo sapiens) (P06239 2-509 limits assumed): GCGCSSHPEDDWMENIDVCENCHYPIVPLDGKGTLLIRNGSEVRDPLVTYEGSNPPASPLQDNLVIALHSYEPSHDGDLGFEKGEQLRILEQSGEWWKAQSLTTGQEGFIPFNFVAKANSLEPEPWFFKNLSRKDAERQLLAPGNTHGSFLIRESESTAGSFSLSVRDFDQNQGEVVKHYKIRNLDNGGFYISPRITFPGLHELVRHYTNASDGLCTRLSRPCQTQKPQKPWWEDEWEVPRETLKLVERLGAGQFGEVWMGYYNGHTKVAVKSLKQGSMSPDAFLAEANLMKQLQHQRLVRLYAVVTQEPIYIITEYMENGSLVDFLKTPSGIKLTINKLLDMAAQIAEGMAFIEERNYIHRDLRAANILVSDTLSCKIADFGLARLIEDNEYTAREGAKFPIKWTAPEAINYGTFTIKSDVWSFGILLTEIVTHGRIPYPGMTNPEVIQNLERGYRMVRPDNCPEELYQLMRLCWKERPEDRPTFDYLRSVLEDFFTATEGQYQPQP
Chain of Tyrosine-protein kinase ZAP-70 (Homo sapiens) (P43403 whole entry): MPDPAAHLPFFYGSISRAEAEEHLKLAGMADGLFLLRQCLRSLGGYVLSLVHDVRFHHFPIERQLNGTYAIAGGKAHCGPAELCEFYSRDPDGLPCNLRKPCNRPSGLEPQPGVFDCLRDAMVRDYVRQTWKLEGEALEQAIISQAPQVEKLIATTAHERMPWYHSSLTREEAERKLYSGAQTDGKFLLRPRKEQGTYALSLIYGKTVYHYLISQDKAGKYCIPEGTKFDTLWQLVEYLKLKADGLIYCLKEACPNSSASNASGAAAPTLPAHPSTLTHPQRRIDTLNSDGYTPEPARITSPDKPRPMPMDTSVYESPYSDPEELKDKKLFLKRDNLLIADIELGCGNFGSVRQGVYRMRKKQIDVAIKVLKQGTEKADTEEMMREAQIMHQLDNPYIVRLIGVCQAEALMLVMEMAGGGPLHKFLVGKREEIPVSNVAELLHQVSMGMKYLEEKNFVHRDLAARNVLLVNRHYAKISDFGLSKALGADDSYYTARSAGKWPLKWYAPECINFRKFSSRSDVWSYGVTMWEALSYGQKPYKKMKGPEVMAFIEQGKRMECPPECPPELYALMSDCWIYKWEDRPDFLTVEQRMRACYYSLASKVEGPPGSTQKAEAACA
Chain of Mitogen-activated protein kinase 14 (Homo sapiens) (Q16539 whole entry): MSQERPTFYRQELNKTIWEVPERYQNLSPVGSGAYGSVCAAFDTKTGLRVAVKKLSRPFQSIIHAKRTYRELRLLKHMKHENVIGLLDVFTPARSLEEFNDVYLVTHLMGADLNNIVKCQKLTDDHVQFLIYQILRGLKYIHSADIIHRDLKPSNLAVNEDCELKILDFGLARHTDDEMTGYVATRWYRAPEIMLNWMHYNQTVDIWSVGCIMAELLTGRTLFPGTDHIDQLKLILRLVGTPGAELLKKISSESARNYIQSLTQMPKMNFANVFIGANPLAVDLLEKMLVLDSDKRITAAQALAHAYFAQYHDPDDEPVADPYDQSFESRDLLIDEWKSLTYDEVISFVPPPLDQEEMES
Chain of BDNF/NT-3 growth factors receptor (Homo sapiens) (Q16620 32-822 limits assumed): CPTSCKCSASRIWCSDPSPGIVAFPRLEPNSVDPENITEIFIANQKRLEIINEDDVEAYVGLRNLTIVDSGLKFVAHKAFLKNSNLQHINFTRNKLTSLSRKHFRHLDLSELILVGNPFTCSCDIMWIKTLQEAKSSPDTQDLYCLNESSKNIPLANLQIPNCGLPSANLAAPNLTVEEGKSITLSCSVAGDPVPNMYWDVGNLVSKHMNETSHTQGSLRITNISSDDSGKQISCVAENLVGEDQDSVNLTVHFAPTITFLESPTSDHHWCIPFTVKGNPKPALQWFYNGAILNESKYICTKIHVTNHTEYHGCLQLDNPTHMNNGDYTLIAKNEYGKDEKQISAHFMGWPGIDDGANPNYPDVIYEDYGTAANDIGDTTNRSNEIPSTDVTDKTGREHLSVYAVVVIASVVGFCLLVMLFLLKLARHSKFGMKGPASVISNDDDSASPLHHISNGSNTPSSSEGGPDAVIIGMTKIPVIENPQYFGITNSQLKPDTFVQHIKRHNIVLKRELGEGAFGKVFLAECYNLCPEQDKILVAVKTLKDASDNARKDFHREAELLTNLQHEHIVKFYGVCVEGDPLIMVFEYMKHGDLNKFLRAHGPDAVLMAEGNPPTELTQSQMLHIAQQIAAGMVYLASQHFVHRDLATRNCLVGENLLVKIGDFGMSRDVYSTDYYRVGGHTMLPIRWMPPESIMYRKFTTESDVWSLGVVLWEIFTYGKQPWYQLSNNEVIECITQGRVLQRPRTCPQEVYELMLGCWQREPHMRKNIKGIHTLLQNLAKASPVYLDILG
Chain of Mitogen-activated protein kinase 8 (Homo sapiens) (P45983 whole entry): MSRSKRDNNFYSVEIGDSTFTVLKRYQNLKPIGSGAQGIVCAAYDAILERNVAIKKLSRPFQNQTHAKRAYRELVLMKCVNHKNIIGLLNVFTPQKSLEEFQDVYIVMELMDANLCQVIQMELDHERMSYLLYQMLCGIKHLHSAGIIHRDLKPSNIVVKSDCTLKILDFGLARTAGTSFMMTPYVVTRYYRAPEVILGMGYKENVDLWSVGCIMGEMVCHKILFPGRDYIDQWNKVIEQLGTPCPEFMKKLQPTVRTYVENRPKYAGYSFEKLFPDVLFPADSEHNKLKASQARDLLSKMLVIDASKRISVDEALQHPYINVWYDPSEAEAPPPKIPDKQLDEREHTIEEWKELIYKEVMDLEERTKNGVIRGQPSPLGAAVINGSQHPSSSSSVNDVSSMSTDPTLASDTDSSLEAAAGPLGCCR
Chain of Cyclin-dependent kinase 1/cyclin B1 (Homo sapiens) (P06493 whole entry, looked up): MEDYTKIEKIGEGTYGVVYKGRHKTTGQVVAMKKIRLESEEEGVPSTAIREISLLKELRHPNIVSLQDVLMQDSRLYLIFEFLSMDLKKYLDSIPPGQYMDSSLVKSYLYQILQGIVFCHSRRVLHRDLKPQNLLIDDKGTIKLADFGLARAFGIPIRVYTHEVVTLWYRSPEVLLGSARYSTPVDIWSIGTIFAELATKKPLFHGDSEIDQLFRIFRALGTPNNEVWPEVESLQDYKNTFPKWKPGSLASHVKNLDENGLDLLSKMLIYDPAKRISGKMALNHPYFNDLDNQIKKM
Chain of Cyclin-dependent kinase 1/cyclin B1 (Homo sapiens) (P14635 whole entry, looked up): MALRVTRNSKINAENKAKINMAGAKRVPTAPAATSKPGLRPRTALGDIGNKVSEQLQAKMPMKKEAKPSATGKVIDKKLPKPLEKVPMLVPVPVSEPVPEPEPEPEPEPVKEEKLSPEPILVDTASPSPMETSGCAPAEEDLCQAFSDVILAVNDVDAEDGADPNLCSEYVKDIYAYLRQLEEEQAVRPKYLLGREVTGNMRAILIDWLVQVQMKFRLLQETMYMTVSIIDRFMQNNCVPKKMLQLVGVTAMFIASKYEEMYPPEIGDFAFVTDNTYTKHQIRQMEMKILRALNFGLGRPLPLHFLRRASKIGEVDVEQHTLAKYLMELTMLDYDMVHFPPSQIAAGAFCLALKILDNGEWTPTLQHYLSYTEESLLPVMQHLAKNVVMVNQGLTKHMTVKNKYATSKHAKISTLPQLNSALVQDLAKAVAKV
Chain of Ribosomal protein S6 kinase alpha-1 (Homo sapiens) (Q15418 whole entry): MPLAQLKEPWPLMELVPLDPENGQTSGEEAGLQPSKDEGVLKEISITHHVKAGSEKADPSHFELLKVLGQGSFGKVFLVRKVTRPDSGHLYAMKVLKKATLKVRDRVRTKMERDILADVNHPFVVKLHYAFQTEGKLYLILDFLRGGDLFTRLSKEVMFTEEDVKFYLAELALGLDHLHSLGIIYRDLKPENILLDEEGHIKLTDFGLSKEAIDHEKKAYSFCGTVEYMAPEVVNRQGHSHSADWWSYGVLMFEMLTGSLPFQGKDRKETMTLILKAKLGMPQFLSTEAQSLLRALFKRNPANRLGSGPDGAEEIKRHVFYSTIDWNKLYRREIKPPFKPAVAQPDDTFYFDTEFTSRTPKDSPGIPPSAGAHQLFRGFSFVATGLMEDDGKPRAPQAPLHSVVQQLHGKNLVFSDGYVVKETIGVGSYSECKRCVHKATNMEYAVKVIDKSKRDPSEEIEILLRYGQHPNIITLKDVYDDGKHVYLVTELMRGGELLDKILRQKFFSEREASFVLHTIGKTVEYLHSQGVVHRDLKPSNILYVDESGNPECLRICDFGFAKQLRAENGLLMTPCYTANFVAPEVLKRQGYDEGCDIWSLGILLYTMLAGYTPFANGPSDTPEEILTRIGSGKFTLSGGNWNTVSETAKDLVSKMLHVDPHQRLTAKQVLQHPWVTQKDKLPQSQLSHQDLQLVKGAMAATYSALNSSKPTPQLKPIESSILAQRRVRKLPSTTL
Chain of Aurora kinase A (Homo sapiens) (O14965 whole entry): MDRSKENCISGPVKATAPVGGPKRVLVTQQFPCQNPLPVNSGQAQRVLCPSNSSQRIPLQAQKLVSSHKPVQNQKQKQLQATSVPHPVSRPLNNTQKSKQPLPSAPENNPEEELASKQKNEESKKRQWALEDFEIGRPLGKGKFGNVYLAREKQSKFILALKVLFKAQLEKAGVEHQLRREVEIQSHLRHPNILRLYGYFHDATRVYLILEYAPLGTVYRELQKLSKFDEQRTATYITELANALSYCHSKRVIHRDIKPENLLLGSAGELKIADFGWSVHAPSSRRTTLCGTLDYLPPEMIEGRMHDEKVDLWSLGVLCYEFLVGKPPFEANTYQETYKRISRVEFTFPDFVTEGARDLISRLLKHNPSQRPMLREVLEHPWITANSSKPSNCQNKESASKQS

SMILES: Cc1ccc(NC(=O)c2cccc(C(F)(F)F)c2)cc1N1Cc2cnc(N)nc2N(C)C1=O
- IC50 [1]: < 5 nM
- IC50 [2]: < 5 nM
- IC50 [3]: < 5 nM
- IC50 [4]: < 5 nM
- IC50 [5]: < 5 nM
- IC50 [6]: < 5 nM
- IC50 [7]: < 5 nM

SMILES: Cc1ccc(Nc2ncc3c(n2)N(C)C(=O)N(c2cc(NC(=O)c4cccc(C(F)(F)F)c4)ccc2C)C3)cn1
- inhibition [8]: 95%
- inhibition [9]: 59%
- inhibition [10]: 100%
- inhibition [11]: 68%
- inhibition [12]: 58%
- IC50 [13]: 5.96 µM
- inhibition [14]: 31%
- inhibition [15]: 22%
- IC50 [16]: 5 nM
- inhibition [17]: 99%
- Tlast [18]: 24 h
- inhibition [19]: 0%
- inhibition [20]: 100%
- IC50 [21]: > 10 µM
- inhibition [22]: 6%
- inhibition [23]: 7%
- inhibition [24]: 77%
- Cmax [25]: 3.62 µM
- inhibition [26]: 98%
- inhibition [27]: 99%
- inhibition [28]: 69%
- inhibition [29]: 89%
- inhibition [30]: 3%
- inhibition [31]: 69%
- inhibition [32]: 98%
- inhibition [33]: 35%
- inhibition [34]: 98%
- half-life [35]: 228 min
- Tlast [36]: 24 h
- Cmax [37]: 11.7 µM
- inhibition [38]: 100%
- inhibition [39]: 0%
- inhibition [40]: 6%
- inhibition [41]: 100%
- inhibition [42]: 0%
- inhibition [43]: 98%
- inhibition [44]: 92%
- inhibition [45]: 12%
- inhibition [46]: 97%
- inhibition [47]: 45%
- inhibition [48]: 2%
- inhibition [49]: 95%
- inhibition [50]: 100%
- inhibition [51]: 62%
- inhibition [52]: 0%
- inhibition [53]: 51%
- inhibition [54]: 69%
- IC50 [55]: 1 nM
- Tmax [56]: 1.8 min
- inhibition [57]: 98%
- inhibition [58]: 49%
- Vd [59]: 1.12 L/kg

SMILES: CNc1ncc2c(n1)N(C)C(=O)N(c1cc(NC(=O)c3cc(-n4cnc(C)c4)cc(C(F)(F)F)c3)ccc1C)C2
- IC50 [1]: < 5 nM
- IC50 [2]: < 5 nM
- IC50 [3]: 15 nM
- IC50 [5]: 13 nM
- IC50 [6]: < 5 nM
- IC50 [60]: < 5 nM
- IC50 [7]: 16 nM

SMILES: Cc1ccc(NC(=O)c2cccc(C(F)(F)F)c2)cc1N1Cc2cnc(Nc3ccccc3)nc2N(C)C1=O
- IC50 [2]: < 5 nM
- IC50 [3]: < 5 nM
- IC50 [6]: < 5 nM
- IC50 [7]: 19 nM
